In patent publication US11104619B2, “Mixture for treating fertilizers containing urea” (EuroChem Agro GmbH, priority 2015, dated 2021):
Like-named read-outs stand apart in the source and are kept apart here.

Tests used:
[1] = tested on: urease; settings: for Ammonia emission, % of the urea applied (77 mg N): Filder loam, 20° C., label gives UI/NI fraction of recommended rate
Protocol: Screening trials were conducted to evaluate the effect of DMPSA and NBPT in the inhibition of urease and inhibition of nitrification, and to find suitable quantities for use. Serving for this purpose was a two-factorial trial design including an unfertilized control sample. For the urease inhibitor NBPT and for the nitrification inhibitor DMPSA, in each case 0%, 33%, 66% and 100% of the application rates recommended for the individual compounds when used alone were used (in this example, 0.6 g of NBPT per kg of urea and, respectively, 3.6 g of DMPSA per kg of urea), giving 16 trials (0%-0% to 100%-100%), in addition to the unfertilized control sample.
Urea fertilizer was delivered in an amount of 200 kg nitrogen per ha, corresponding to 0.51 mg of urea nitrogen per g of soil. The soil used was Filder loam with a pH of 6.8. The incubation trials were carried out at 20° C. For the investigation of trace gases, air supply was passed first through a gas sample, then through a 250 ml capacity glass bottle containing 150 g of soil, subsequently through a gas sample for the outgoing air and through an acid trap, in order, for example, to determine amounts of ammonia. For the measurement of nitrogen, about 20 g of soil were incubated; for the measurement of urea, about 5 g of soil.

[2] = tested on: nitrification; test: Soil incubation trial: cumulative laughing gas (N2O-N) emission; settings: for N2O—N cumulative / N2O—N cumulative, % of appl.: 77 mg N applied; for N2O—N cumulative, % of appl.: cumulative over 28 days
[3] = tested on: nitrification; test: Soil incubation trial: nitrate formed from applied urea N; settings: for Nitrate, % of the urea applied (13 mg N): Filder loam, 20° C., label gives UI/NI fraction of recommended rate
Protocol: % of the urea applied (13 mg N)

[4] = tested on: nitrification; test: Soil incubation trial: recovery of applied urea N as ammonium; settings: for percentage recovery in the form of ammonium, % of applied urea (13 mg N): 28 days after application, Filder loam pH 6.8, 20° C., 200 kg urea N/ha, label gives UI/NI fraction of recommended rate (0.6 g NBPT, 3.6 g DMPSA per kg urea)
Protocol: % of applied urea (13 mg N)
A determination was carried out 28 days after application of the urea, with the percentage recovery in the form of ammonium being reported.

## Cc1cn(C(CC(=O)O)C(=O)O)nc1C (stereo not drawn) [DMPSA, 2-(N-3,4-dimethylpyrazole)succinic acid]
[1]; 4 days after application, listed as UI 0 NI 1
  Ammonia emission, % of the urea applied (77 mg N): 0.7%
[1]; 4 days after application, listed as UI 0 NI ⅓
  Ammonia emission, % of the urea applied (77 mg N): 0.6%
[1]; 4 days after application, listed as UI 0 NI ⅔
  Ammonia emission, % of the urea applied (77 mg N): 0.9%
[1]; 9 days after application, listed as UI 0 NI 1
  Ammonia emission, % of the urea applied (77 mg N): 2.2%
[1]; 9 days after application, listed as UI 0 NI ⅓
  Ammonia emission, % of the urea applied (77 mg N): 3.7%
[1]; 9 days after application, listed as UI 0 NI ⅔
  Ammonia emission, % of the urea applied (77 mg N): 2.4%
[1]; addition of DMPSA
  effect of addition on ammonia emissions: causes the ammonia emissions to rise
[2]; 0 days after appl., 150 g soil
  N2O—N cumulative: 0 μg N2O—N Bottle^1
[2]; 33% of DMPSA
  emissions of laughing gas: drastically reduces the emissions of laughing gas
[2]; 0.5 days after appl.
  N2O—N cumulative: 0 μg N2O—N Bottle^1
[2]; 1 day after appl., listed as UI-0_NI-1
  N2O—N cumulative: 3 μg N2O—N Bottle^1
[2]; 1 day after appl., listed as UI-0_NI-2
  N2O—N cumulative: 1 μg N2O—N Bottle^1
[2]; 1 day after appl., listed as UI-0_NI-3
  N2O—N cumulative: 1 μg N2O—N Bottle^1
[2]; 2 days after appl., listed as UI-0_NI-1
  N2O—N cumulative: 3 μg N2O—N Bottle^1
[2]; 2 days after appl., listed as UI-0_NI-2
  N2O—N cumulative: 1 μg N2O—N Bottle^1
[2]; 2 days after appl., listed as UI-0_NI-3
  N2O—N cumulative: 1 μg N2O—N Bottle^1
[2]; 3 days after appl., listed as UI-0_NI-1
  N2O—N cumulative: 4 μg N2O—N Bottle^1
[2]; 3 days after appl., listed as UI-0_NI-2
  N2O—N cumulative: 2 μg N2O—N Bottle^1
[2]; 3 days after appl., listed as UI-0_NI-3
  N2O—N cumulative: 1 μg N2O—N Bottle^1
[2]; 4 days after appl., listed as UI-0_NI-1
  N2O—N cumulative: 4 μg N2O—N Bottle^1
[2]; 4 days after appl., listed as UI-0_NI-2
  N2O—N cumulative: 2 μg N2O—N Bottle^1
[2]; 4 days after appl., listed as UI-0_NI-3
  N2O—N cumulative: 2 μg N2O—N Bottle^1
[2]; 5 days after appl., listed as UI-0_NI-1
  N2O—N cumulative: 4 μg N2O—N Bottle^1
[2]; 5 days after appl., listed as UI-0_NI-2
  N2O—N cumulative: 2 μg N2O—N Bottle^1
[2]; 5 days after appl., listed as UI-0_NI-3
  N2O—N cumulative: 2 μg N2O—N Bottle^1
[2]; 6 days after appl., listed as UI-0_NI-1
  N2O—N cumulative: 5 μg N2O—N Bottle^1
[2]; 6 days after appl., listed as UI-0_NI-2
  N2O—N cumulative: 2 μg N2O—N Bottle^1
[2]; 6 days after appl., listed as UI-0_NI-3
  N2O—N cumulative: 2 μg N2O—N Bottle^1
[2]; 8 days after appl., listed as UI-0_NI-1
  N2O—N cumulative: 6 μg N2O—N Bottle^1
[2]; 8 days after appl., listed as UI-0_NI-2
  N2O—N cumulative: 3 μg N2O—N Bottle^1
[2]; 8 days after appl., listed as UI-0_NI-3
  N2O—N cumulative: 3 μg N2O—N Bottle^1
[2]; 10 days after appl., listed as UI-0_NI-1
  N2O—N cumulative: 5 μg N2O—N Bottle^1
[2]; 10 days after appl., listed as UI-0_NI-2
  N2O—N cumulative: 3 μg N2O—N Bottle^1
[2]; 10 days after appl., listed as UI-0_NI-3
  N2O—N cumulative: 2 μg N2O—N Bottle^1
[2]; 12 days after appl., listed as UI-0_NI-1
  N2O—N cumulative: 5 μg N2O—N Bottle^1
[2]; 12 days after appl., listed as UI-0_NI-2
  N2O—N cumulative: 3 μg N2O—N Bottle^1
[2]; 12 days after appl., listed as UI-0_NI-3
  N2O—N cumulative: 3 μg N2O—N Bottle^1
[2]; 14 days after appl., listed as UI-0_NI-1
  N2O—N cumulative: 6 μg N2O—N Bottle^1
[2]; 14 days after appl., listed as UI-0_NI-2
  N2O—N cumulative: 3 μg N2O—N Bottle^1
[2]; 14 days after appl., listed as UI-0_NI-3
  N2O—N cumulative: 3 μg N2O—N Bottle^1
[2]; 17 days after appl., listed as UI-0_NI-1
  N2O—N cumulative: 6 μg N2O—N Bottle^1
[2]; 17 days after appl., listed as UI-0_NI-2
  N2O—N cumulative: 3 μg N2O—N Bottle^1
[2]; 17 days after appl., listed as UI-0_NI-3
  N2O—N cumulative: 3 μg N2O—N Bottle^1
[2]; 18 days after appl., listed as UI-0_NI-1
  N2O—N cumulative: 5 μg N2O—N Bottle^1
[2]; 18 days after appl., listed as UI-0_NI-2
  N2O—N cumulative: 1 μg N2O—N Bottle^1
[2]; 18 days after appl., listed as UI-0_NI-3
  N2O—N cumulative: 2 μg N2O—N Bottle^1
[2]; 20 days after appl., listed as UI-0_NI-1
  N2O—N cumulative: 5 μg N2O—N Bottle^1
[2]; 20 days after appl., listed as UI-0_NI-2
  N2O—N cumulative: 2 μg N2O—N Bottle^1
[2]; 20 days after appl., listed as UI-0_NI-3
  N2O—N cumulative: 2 μg N2O—N Bottle^1
[2]; 22 days after appl., listed as UI-0_NI-1
  N2O—N cumulative: 7 μg N2O—N Bottle^1
[2]; 22 days after appl., listed as UI-0_NI-2
  N2O—N cumulative: 3 μg N2O—N Bottle^1
[2]; 22 days after appl., listed as UI-0_NI-3
  N2O—N cumulative: 2 μg N2O—N Bottle^1
[2]; 24 days after appl., listed as UI-0_NI-1
  N2O—N cumulative: 7 μg N2O—N Bottle^1
[2]; 24 days after appl., listed as UI-0_NI-2
  N2O—N cumulative: 4 μg N2O—N Bottle^1
[2]; 24 days after appl., listed as UI-0_NI-3
  N2O—N cumulative: 3 μg N2O—N Bottle^1
[2]; 28 days after appl., listed as UI-0_NI-1
  N2O—N cumulative: 8 μg N2O—N Bottle^1
[2]; 28 days after appl., listed as UI-0_NI-2
  N2O—N cumulative: 6 μg N2O—N Bottle^1
[2]; 28 days after appl., listed as UI-0_NI-3
  N2O—N cumulative: 4 μg N2O—N Bottle^1
[2]; listed as UI-0_NI-1
  N2O—N cumulative, % of appl.: 0.01 % of appl.
[2]; listed as UI-0_NI-2
  N2O—N cumulative, % of appl.: 0.01 % of appl.
[2]; listed as UI-0_NI-3
  N2O—N cumulative, % of appl.: 0.00 % of appl.
[3]; 33% of the DMPSA, entire period
  inhibition of nitrification (nitrate results): sufficient to inhibit nitrification during the entire period
[3]; 5 days after application, listed as UI 0 NI 1
  Nitrate, % of the urea applied (13 mg N): 6%
[3]; 5 days after application, listed as UI 0 NI ⅓
  Nitrate, % of the urea applied (13 mg N): 4%
[3]; 5 days after application, listed as UI 0 NI ⅔
  Nitrate, % of the urea applied (13 mg N): 5%
[3]; 28 days after application, listed as UI 0 NI 1
  Nitrate, % of the urea applied (13 mg N): 14%
[3]; 28 days after application, listed as UI 0 NI ⅓
  Nitrate, % of the urea applied (13 mg N): 20%
[3]; 28 days after application, listed as UI 0 NI ⅔
  Nitrate, % of the urea applied (13 mg N): 17%
[4]; 33% of DMPSA, throughout the trial
  inhibition of nitrification (ammonium results): sufficient to inhibit nitrification throughout the trial
[4]; listed as UI 0 NI 1
  percentage recovery in the form of ammonium, % of applied urea (13 mg N): 69%
[4]; listed as UI 0 NI ⅓
  percentage recovery in the form of ammonium, % of applied urea (13 mg N): 62%
[4]; listed as UI 0 NI ⅔
  percentage recovery in the form of ammonium, % of applied urea (13 mg N): 63%
